For this experiment, the target named is RIPK1 (Homo sapiens (Human), UniProt Q13546). The experiment can be described thus: RIPK1-ADP-Glo Enzymatic Assay. The format is biochemical. The following applies: recombinant GST-RIPK1 kinase domain (residues 1-327), 25 nM, ten-point titration, 30 minutes pre-incubation. The method, then: The enzymatic activity of RIPK1 was measured using an assay derived from ADP-Glo kit (™Promega), which provides a luminescent-based ADP detection system. Specifically, the ADP generated by RIPK1 kinase was proportionally detected as luminescent signals in a homogenous fashion. In this context, the assessment of the inhibitory effect of small molecules (EC50) was measured by the effectiveness of the compounds to inhibit the ATP to ADP conversion by RIPK1.
Chain of RIPK1 (Q13546 1-327): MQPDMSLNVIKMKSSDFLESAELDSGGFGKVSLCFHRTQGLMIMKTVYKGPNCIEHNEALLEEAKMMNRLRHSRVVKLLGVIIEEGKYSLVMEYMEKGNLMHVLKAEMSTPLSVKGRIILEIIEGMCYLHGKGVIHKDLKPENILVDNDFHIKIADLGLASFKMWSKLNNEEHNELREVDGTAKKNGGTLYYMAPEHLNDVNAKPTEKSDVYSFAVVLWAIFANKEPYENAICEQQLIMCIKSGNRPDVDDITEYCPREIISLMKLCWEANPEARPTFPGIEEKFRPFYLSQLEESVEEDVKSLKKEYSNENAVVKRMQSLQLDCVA
In this assay, the potency (EC50) of each compound was determined from a ten-point (1:3 serial dilution: top compound concentration of 100000 nM) titration curve using the following outlined procedure. To each well of a white ProxiPlus 384 well-plate, 30 nL of compound (1% DMSO in final assay volume of 3 μL) was dispensed, followed by the addition of 2 μL of 1x assay buffer (25 mM Hepes 7.3, 20 mM MgCl2, 50 mM NaCl, 1 mM DTT, 0.005% Tween20, and 0.02% BSA) containing 37.5 nM of GST-RIPK1 (recombinant GST-RIPK1 kinase domain (residues 1-327) enzyme produced from baculovirus-transfected Sf21 cells: MW=62 kDa). Plates were placed in an ambient temperature humidified chamber for a 30 minutes pre-incubation with compound. Subsequently, each reaction was initiated by the addition of 1 μL 1× assay buffer containing […] dephosphorylated-MBP substrate. The final reaction in each well of 3 μL consists of 25 nM of GST-RIPK1, 300 µM ATP, and 3 μM dephosphorylated-MBP. Kinase reactions were allowed to proceed for 150 minutes prior to adding ADP-Glo reagents per Promega's outlined kit protocol. Dose-response curves were generated by plotting percent effect (% product conversion: Y-axis) vs. Logio compound concentrations (X-axis). EC50 values were calculated using a non-linear regression, four-parameters sigmoidal dose-response model and are provided for example compounds of the invention (labeled “RIPK1 EC50 (nM)” throughout the above examples).
`O=C1N2[C@H](c3cc(F)cc(F)c3)CCN2CC12CCN(c1cnc(-c3ccccc3Cl)cn1)CC2` [Example 2.16, (S)-1-(5-(2-chlorophenyl)pyrazin-2-y1)-7′-(3,5-difluorophenyl)dihydro-1′H,3′H,5′H-spiro[piperidine-4,2′-pyrazolo[1,2-a]pyrazol]-1′-one]: the EC50 worked out at 25 nM. As for `COc1nc(OC)nc(N2CCC3(CC2)CN2CC[C@@H](c4cc(F)cc(F)c4)N2C3=O)n1` [Example 1.31, (S)-7′-(3,5-difluorophenyl)-1-(4,6-dimethoxy-1,3,5-triazin-2-yl)dihydro-1′H,3′H,5′H-spiro [piperidine-4,2′-pyrazolo[1,2-a]pyrazol]-1′-one], the concentration giving a half-maximal response (EC50) is 285 nM. As to `O=C(c1cccc(F)c1Cl)N1CCC2(CC1)CN1CC[C@@H](c3cc(F)cc(F)c3)N1C2=O` [Example 4.28, (S)-1-(2-chloro-3-fluorobenzoyl)-7′-(3,5-difluorophenyl)dihydro-1′H,3′H,5′H-spiro[piperidine-4,2′-pyrazolo[1,2-a]pyrazol]-l′-one], the EC50 was 36 nM.

Turning to `CC(C)c1nc(Cl)cc(N2CCC3(CC2)CN2CC[C@@H](c4cc(F)cc(F)c4)N2C3=O)n1` [Example 1.47, (S)-1-(6-chloro-2-isopropylpyrimidin-4-yl)-7′-(3,5-difluorophenyl)dihydro-1′H,3′H,5′H-spiro[piperidine-4,2′-pyrazolo[1,2-a]pyrazol]-1′-one], the EC50 is 153 nM. Regarding `N#Cc1c(F)c(F)nc(N2CCC3(CC2)CN2CC[C@@H](c4cc(F)cc(F)c4)N2C3=O)c1F` [Example 1.51, (S)-2-(7′-(3,5-difluorophenyl)-1′-oxodihydro-1′H,3′H,5′H-spiro [piperidine-4,2′-pyrazolo[1,2-a]pyrazol]-1-yl)-3,5,6-trifluoroisonicotinonitrile], the EC50 is 189 nM. Turning to `CC(F)(F)c1ccnc(N2CCC3(CC2)CN2CC[C@@H](c4cc(F)cc(F)c4)N2C3=O)n1` [Example 1.77, (S)-1-(4-(1,1-difluoroethyl)pyrimidin-2-yl)-7′-(3,5-difluorophenyl)dihydro-1′H,3′H,5′H-spiro [piperidine-4,2′-pyrazolo[1,2-a]pyrazol]-1′-one], the EC50 was found to be 200 nM. For `Cc1cc(F)cc(C(=O)N2CCC3(CC2)CN2CC[C@@H](c4cc(F)cc(F)c4)N2C3=O)c1` [Example 4.18, (S)-7′-(3,5-difluorophenyl)-1-(3-fluoro-5-methylbenzoyl) dihydro-1′H,3′H,5′H-spiro[piperidine-4,2′-pyrazolo[1,2-a]pyrazol]-l′-one], the 50% effective concentration (EC50) is 18 nM.

For the molecule `O=C1N2[C@H](c3cc(F)cc(F)c3)CCN2CC12CCN(c1nc(Cl)nc3[nH]ncc13)CC2` [Example 1.53, (S)-1-(6-chloro-1H-pyrazolo[3,4-d]pyrimidin-4-yl)-7′-(3,5-difluorophenyl)dihydro-1′H,3′H,5′H-spiro[piperidine-4,2′-pyrazolo[1,2-a]pyrazol]-1′-one], the EC50 was 857 nM.

On to `O=C1N2[C@H](c3cc(F)cc(F)c3)CCN2CC12CCN(c1nccc(C(F)(F)F)n1)CC2` [Example 1.92, (S)-7′-(3,5-difluorophenyl)-1-(4-(trifluoromethyl)pyrimidin-2-yl)dihydro-1′H,3′H,5′H-spiro[piperidine-4,2′-pyrazolo[1,2-a]pyrazol]-1′-one], for which the EC50 turned out to be 91 nM. Take `CCc1nccc(N2CCC3(CC2)CN2CC[C@@H](c4cc(F)cc(F)c4)N2C3=O)n1` [Example 1.72, (S)-7′-(3,5-difluorophenyl)-1-(2-ethylpyrimidin-4-yl)dihydro-1′H,3′H,5′H-spiro[piperidine-4,2′-pyrazolo[1,2-a]pyrazol]-1′-one]: the EC50 amounted to 208 nM. Turning to `Cc1ccc2c(N3CCC4(CC3)CN3CC[C@@H](c5cc(F)cc(F)c5)N3C4=O)ccnc2c1` [Example 2.8, (S)-7′-(3,5-difluorophenyl)-1-(7-methylquinolin-4-yl)dihydro-l′H,3′H,5′H-spiro[piperidine-4,2′-pyrazolo[1,2-a]pyrazol]-1′-one], the EC50 is 24 nM. On to `O=C1N2[C@H](c3cc(F)cc(F)c3)CCN2CC12CCN(c1cccc(F)c1)CC2` [Example 10.1, (S)-7′-(3,5-difluorophenyl)-1-(3-fluorophenyl) dihydro-1′H,3′H,5′H-spiro [piperidine-4,2′-pyrazolo[1,2-α]pyrazol]-1′-one], for which the EC50 is 47 nM. Regarding `O=C1N2[C@H](c3cc(F)cc(F)c3)CCN2CC12CCN(c1ccc(C(F)(F)F)cn1)CC2` [Example 1.39, (S)-7′-(3,5-difluorophenyl)-1-(5-(trifluoromethyl)pyridin-2-yl)dihydro-1′H,3′H,5′H-spiro[piperidine-4,2′-pyrazolo[1,2-a]pyrazol]-1′-one], the EC50 was 77 nM. For `Cc1cn(-c2cc(N3CCC4(CC3)CN3CC[C@@H](c5cc(F)cc(F)c5)N3C4=O)ncn2)cn1` [Example 1.19, (S)-7′-(3,5-difluorophenyl)-1-(6-(4-methyl-1H-imidazol-1-yl)pyrimidin-4-yl)dihydro-1′H,3′H,5′H-spiro [piperidine-4,2′-pyrazolo[1,2-a]pyrazol]-1′-one], the EC50 amounted to 37 nM.

In the case of `O=C(c1cc(F)ccc1F)N1CCC2(CC1)CN1CC[C@@H](c3cc(F)cc(F)c3)N1C2=O` [Example 4.21, (S)-1-(2,5-difluorobenzoyl)-7′-(3,5-difluorophenyl) dihydro-1′H,3′H,5′H-spiro[piperidine-4,2′-pyrazolo[1,2-a]pyrazol]-l′-one], the EC50 is 15 nM. With `CNC(=O)c1ccnc(N2CCC3(CC2)CN2CC[C@@H](c4cc(F)cc(F)c4)N2C3=O)n1` [Example 1.90, (S)-2-(7′-(3,5-difluorophenyl)-1′-oxodihydro-1′H,3′H,5′H-spiro[piperidine-4,2′-pyrazolo[1,2-a]pyrazol]-1-yl)-N-methylpyrimidine-4-carboxamide] the figure was 106 nM; with `Cc1csc2ncnc(N3CCC4(CC3)CN3CC[C@@H](c5cc(F)cc(F)c5)N3C4=O)c12` [Example 1.73, (S)-7′-(3,5-difluorophenyl)-1-(5-methylthieno[2,3-d]pyrimidin-4-yl)dihydro-1′H,3′H,5′H-spiro[piperidine-4,2′-pyrazolo[1,2-a]pyrazol]-l′-one], 4 nM. In the case of `O=C1N2[C@H](c3cc(F)cc(F)c3)CCN2CC12CCN(c1cnc(-c3cccc(Cl)c3)cn1)CC2` [Example 2.17, (S)-1-(5-(3-chlorophenyl)pyrazin-2-yl)-7′-(3,5-difluorophenyl)dihydro-1′H,3′H,5′H-spiro[piperidine-4,2′-pyrazolo[1,2-a]pyrazol]-1′-one], the concentration for a half-maximal effect (EC50) is 96 nM. Consider `COc1cc(F)cc(C(=O)N2CCC3(CC2)CN2CC[C@@H](c4cc(F)cc(F)c4)N2C3=O)c1` [Example 4.27, (S)-7′-(3,5-difluorophenyl)-1-(3-fluoro-5-methoxybenzoyl) dihydro-l′H,3′H,5′H-spiro[piperidine-4,2′-pyrazolo[1,2-a]pyrazol]-l′-one], for which the EC50 was 26 nM. As to `Cc1cc(-c2cncs2)nc(N2CCC3(CC2)CN2CC[C@@H](c4cc(F)cc(F)c4)N2C3=O)c1` [Example 2.23, (S)-7′-(3,5-difluorophenyl)-1-(4-methyl-6-(thiazol-5-yl)pyridin-2-yl)dihydro-1′H,3′H,5′H-spiro[piperidine-4,2′-pyrazolo[1,2-a]pyrazol]-1′-one], the EC50 is 48 nM.

Take `O=C1N2[C@H](c3cc(F)cc(F)c3)CCN2CC12CCN(c1ncc(F)cn1)CC2` [Example 1.29, (S)-7′-(3,5-difluorophenyl)-1-(5-fluoropyrimidin-2-yl)dihydro-1′H,3′H,5′H-spiro[piperidine-4,2′-pyrazolo[1,2-a]pyrazol]-1′-one]: the EC50 stood at 84 nM. The same measure for `Cc1cc2c(N3CCC4(CC3)CN3CC[C@@H](c5cc(F)cc(F)c5)N3C4=O)ncnc2s1` [Example 1.67, (S)-7′-(3,5-difluorophenyl)-1-(6-methylthieno[2,3-d]pyrimidin-4-yl)dihydro-1′H,3′H,5′H-spiro[piperidine-4,2′-pyrazolo[1,2-a]pyrazol]-1′-one]: 38 nM.

For `O=C1N2[C@H](c3cc(F)cc(F)c3)CCN2CC12CCN(c1cc(-c3ccccc3)ncn1)CC2` [Example 1.35, (S)-7′-(3,5-difluorophenyl)-1-(6-phenylpyrimidin-4-yl)dihydro-1′H,3′H,5′H-spiro[piperidine-4,2′-pyrazolo[1,2-a]pyrazol]-1′-one], the EC50 is 15 nM. With `O=C(c1ncccn1)N1CCC2(CC1)CN1CC[C@@H](c3cc(F)cc(F)c3)N1C2=O` [Example 4.2, (S)-7′-(3,5-difluorophenyl)-1-(pyrimidine-2-carbonyl)dihydro-1′H,3′H,5′H-spiro[piperidine-4,2′-pyrazolo[1,2-a]pyrazol]-l′-one] the figure was 434 nM.

The EC50 is the concentration giving half of the maximal effect.

(Values after patent US20240425524A1, “SPIROTRICYCLE RIPK1 INHIBITORS AND METHODS OF USES THEREOF” (Merck Sharp & Dohme LLC, priority 2021, published 2024).)
